Results reported in patent US20080280920A1, “Plasminogen Activator Inhibitor-1 Inhibitors” (priority 2005, published 2008).

What was measured:
[1] = molecular target: T1, PAI-1 interaction with vitronectin (Homo sapiens, UniProt P05121); assay: PAI-1 vitronectin interaction ELISA; type: binding; conditions: 15 nM PAI-1, vitronectin coated plates
T1 construct: purchased Molecular Innovations
Experimental: Principle: This ELISA assay is based on the interaction of wildtype human PAI-1 (aa 110-145) with the N-terminal somatomedin B-like (SMB) domain (aa 1-40) on vitronectin. PAI-1 was allowed to bind to vitronectin coated plates. The bound PAI-1 was detected with a HRP-conjugated polyclonal goat anti-human PAI-1 antibody using a standard ELISA method. In order to screen these compounds for their ability to disrupt PAI-1's interaction with vitronectin, PAI-1 was pre-incubated with various concentrations of the lead compounds before being allowed to bind to vitronectin.
Method: Human monomeric vitronectin (Vn; Molecular Innovations) was diluted to a concentration of 2.5 μg/ml in a buffer containing 100 mM Na2CO3, pH 9.6. […]
In a separate 96-well microtiter plate 20 μL per well of wildtype human PAI-1 (15 nM final concentration) was added with or without various concentrations of lead compounds (1 μM to 1000 μM final concentration) and incubated at room temperature for 15 minutes on a rotating shaker. […] Optical density was measured at 450 nm on a SoftMax PrO™ plate reader.
Where vitronectin inhibition was evident, IC50 values for a test compound were calculated by fitting a non-linear sigmoidal regression curve to log micromolar concentration versus optical density data.

[2] = molecular target: T2, wildtype human PAI-1 (Homo sapiens, UniProt P05121); assay: PAI-1/uPA assay (residual uPA activity, fluorescent substrate SpectroFluor); type: biochemical
T2 construct: purchased Molecular Innovations Lot# HWT-804
T2 sequence (P05121 24-402): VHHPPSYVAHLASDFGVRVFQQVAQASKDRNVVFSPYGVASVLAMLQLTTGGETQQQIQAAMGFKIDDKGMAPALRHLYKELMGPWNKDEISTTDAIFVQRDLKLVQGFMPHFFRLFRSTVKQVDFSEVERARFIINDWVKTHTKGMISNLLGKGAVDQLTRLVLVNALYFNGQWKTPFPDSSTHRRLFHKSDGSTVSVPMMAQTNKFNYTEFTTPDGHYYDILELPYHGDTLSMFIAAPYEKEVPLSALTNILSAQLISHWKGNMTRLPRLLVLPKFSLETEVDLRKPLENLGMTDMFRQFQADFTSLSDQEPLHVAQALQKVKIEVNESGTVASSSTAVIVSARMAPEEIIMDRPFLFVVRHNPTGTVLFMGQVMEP
Experimental: Principle: The assay is based on using a fluorescent substrate (SpectroFluor) to measure residual uPA following inhibition of uPA by PAI-1. PAI-1 used in the assay is pre-treated in the presence of increasing concentrations of the lead compounds to screen for any inhibitory effects on PAI-1. Method: This assay was performed in 96 well microtiter plates. The concentrations of uPA (8 nM) and PAI-1 (6 nM) used in this assay were carefully optimized when using the fluorescent substrate, SpectroFluor™. Stock solutions (10 mM) of all lead compounds were prepared fresh in DMSO. […] 20 μl of 6 nM wildtype human PAI-1 (Molecular Innovations, Lot# HWT-804) was incubated for 15-20 minutes at room temperature in 96 well microtiter plates either with buffer, (50 mM HEPES, 150 mM NaCl, 0.05% Tween-20, 1% BSA, pH 6.6) or various concentrations (10 nM to 100 μM final concentration) of lead compounds in a total volume of 80 μl. A 20 μl aliquot of 8 nM uPA (HMW) solution in 0.05M Tris Buffered™ saline (TBS), pH 8.4 was added to each well and the mixture incubated for an additional 5 minutes at RT. The proteolytic reaction was initiated by addition of 50 μl of 0.1 mM SpectroFluor (Spectrozyme UK Fluorogenic substrate) to each well. The kinetics of the free chromophore, 7-amino-4-methylcoumarin (AMC) released in the course of peptide cleavage by the protease, uPA, was monitored for 30 minutes at 37° C. on a spectrofluorometric microplate reader with an excitation wavelength of 360 nm and emission wavelength of 440 nm. Kinetic data regarding the rate of substrate cleavage by uPA was acquired with Softmax PrO™ software. The difference between the residual uPA activity in the presence or absence of untreated PAI-1, at the molar ratio used, was considered as the “total” PAI-1 activity (100%). The inhibition of uPA by PAI-1 treated with lead compounds was expressed as a percentage of the initial activity of untreated PAI-1. Controls were performed during each experiment to ensure the nearly complete inhibition of uPA by untreated PAI-1 and also to ensure the absence of any direct effect of the lead compounds on uPA alone or on SpectroFluor.

T1 sequence (P05121 24-402): as above

Structure (SMILES): CCOC(=O)[C@H](CCCNC(=N)NS(=O)(=O)c1c(C)cc(OC)c(C)c1C)NC(=O)N[C@@H](Cc1csc2ccccc12)C(=O)OCC [Compound Q012059, (2S)-2-[({[(1S)-1-carboxy-2-(thianaphthen-3-yl)ethyl]amino}carbonyl)amino]-5-({imino[(4-methoxy-2,3,6-trimethylphenylsulfonyl)amino]methyl}amino)pentanoic acid diethyl ester]
- IC50 [1]: 910 µM
- Percent PAI-1 inhibition ([2]; at the concentration given, percent of activity of untreated PAI-1): 23
- Conc. of compound required for PAI-1 inhibition ([2]; concentration giving the percent inhibition, 6 nM PAI-1, 8 nM uPA): 10 µM
